Data reported in BindingDB's records for PubMed 2176210 (Ciba-Geigy, 1990).
pIC50: −log10 of the molar value.

Key:
Test in all cases: Kinase Assay
[1] = molecular target: Tyrosine-protein kinase ABL1 (Homo sapiens, UniProt P00519)
[2] = molecular target: Protein kinase C alpha type (Homo sapiens, UniProt P17252)
[3] = molecular target: Tyrosine-protein kinase CSK (Homo sapiens, UniProt P41240)
[4] = molecular target: Epidermal growth factor receptor (Homo sapiens, UniProt P00533)
Description: Determination of EGF receptor kinase activity was performed as described using A431 membranes as the enzyme source and agiotensin II as substrate.

[5] = molecular target: cAMP-dependent protein kinase catalytic subunit alpha (Homo sapiens, UniProt P17612)

Chain of Epidermal growth factor receptor (P00533 whole entry): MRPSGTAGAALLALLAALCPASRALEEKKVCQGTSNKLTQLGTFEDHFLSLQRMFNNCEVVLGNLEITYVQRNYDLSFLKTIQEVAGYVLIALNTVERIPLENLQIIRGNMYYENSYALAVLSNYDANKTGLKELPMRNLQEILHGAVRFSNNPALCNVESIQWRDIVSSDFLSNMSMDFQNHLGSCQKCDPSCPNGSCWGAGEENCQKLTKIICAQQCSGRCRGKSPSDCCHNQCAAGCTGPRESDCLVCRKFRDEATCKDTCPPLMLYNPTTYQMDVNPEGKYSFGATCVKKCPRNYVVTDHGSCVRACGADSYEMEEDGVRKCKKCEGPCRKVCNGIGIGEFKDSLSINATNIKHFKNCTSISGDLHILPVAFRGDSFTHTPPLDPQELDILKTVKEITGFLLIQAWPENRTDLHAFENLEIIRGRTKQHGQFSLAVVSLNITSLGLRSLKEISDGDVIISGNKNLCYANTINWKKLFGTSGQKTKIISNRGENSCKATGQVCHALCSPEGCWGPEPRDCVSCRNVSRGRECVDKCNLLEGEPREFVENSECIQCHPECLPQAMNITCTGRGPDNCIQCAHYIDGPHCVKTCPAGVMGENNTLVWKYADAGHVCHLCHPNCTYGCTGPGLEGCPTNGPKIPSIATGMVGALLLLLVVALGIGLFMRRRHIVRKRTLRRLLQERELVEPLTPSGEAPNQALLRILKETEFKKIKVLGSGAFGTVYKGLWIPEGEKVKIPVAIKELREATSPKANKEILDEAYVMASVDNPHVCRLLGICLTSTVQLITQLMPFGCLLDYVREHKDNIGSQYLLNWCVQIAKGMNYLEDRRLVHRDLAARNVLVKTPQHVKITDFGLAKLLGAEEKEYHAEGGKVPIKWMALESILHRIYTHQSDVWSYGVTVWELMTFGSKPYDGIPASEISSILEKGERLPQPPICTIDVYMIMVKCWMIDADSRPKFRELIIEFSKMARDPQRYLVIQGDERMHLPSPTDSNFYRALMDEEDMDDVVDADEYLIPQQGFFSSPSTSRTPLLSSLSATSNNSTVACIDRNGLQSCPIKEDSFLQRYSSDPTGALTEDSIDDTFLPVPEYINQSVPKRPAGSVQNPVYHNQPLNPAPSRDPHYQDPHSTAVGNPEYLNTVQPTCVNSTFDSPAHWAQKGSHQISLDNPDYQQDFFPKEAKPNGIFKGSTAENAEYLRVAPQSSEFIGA
Chain of Tyrosine-protein kinase CSK (P41240 whole entry): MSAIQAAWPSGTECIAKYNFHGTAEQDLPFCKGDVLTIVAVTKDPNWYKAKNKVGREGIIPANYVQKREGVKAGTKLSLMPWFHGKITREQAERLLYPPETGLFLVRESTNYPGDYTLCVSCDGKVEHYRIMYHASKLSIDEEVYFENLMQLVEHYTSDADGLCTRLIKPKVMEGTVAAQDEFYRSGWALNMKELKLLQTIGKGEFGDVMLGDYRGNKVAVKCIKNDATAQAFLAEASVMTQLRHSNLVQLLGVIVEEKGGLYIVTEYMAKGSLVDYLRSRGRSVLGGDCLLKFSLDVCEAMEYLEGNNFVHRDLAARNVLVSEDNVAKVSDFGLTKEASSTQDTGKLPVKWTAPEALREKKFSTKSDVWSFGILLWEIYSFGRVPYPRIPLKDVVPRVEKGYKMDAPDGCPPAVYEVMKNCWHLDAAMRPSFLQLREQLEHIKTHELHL
Chain of Tyrosine-protein kinase ABL1 (P00519 whole entry): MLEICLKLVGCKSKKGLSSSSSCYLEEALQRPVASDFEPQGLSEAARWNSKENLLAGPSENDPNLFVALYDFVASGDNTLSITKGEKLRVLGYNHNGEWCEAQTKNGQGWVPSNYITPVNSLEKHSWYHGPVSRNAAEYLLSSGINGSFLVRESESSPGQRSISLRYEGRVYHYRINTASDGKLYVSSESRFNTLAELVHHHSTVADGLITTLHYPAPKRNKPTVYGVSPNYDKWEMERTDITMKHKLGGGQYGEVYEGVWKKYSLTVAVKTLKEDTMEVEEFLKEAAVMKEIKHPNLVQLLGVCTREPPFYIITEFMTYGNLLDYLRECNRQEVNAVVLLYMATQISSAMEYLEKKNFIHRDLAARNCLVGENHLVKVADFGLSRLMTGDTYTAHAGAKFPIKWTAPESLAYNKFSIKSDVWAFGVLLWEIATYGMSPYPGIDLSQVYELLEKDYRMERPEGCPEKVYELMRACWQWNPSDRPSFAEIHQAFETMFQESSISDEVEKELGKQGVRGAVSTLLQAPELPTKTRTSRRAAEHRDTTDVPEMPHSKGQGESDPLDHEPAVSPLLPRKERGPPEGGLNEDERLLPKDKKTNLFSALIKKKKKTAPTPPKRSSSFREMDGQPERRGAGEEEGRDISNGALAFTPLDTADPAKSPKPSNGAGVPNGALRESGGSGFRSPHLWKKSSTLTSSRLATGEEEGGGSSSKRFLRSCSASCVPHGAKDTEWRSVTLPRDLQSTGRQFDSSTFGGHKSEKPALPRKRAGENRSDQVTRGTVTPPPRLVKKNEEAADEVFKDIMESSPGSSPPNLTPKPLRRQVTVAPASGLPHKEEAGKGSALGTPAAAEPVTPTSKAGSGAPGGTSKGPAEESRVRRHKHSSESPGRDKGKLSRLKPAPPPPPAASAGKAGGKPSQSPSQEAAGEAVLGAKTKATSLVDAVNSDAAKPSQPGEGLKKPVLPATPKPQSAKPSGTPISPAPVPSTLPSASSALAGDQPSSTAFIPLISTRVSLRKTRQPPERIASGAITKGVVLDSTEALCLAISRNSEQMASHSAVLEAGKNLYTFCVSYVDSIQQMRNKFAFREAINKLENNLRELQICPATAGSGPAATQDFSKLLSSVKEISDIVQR

| SMILES | pIC50 [1] | pIC50 [2] | pIC50 [3] | pIC50 [4] | pIC50 [5] |
| --- | --- | --- | --- | --- | --- |
| C=C(C)Cn1c(O)c(O)sc1=NN=c1scc(O)n1C [Thiazolidine-dione, 7] | < 4.00 | < 4.00 | < 4.00 | < 4.00 |  |
| C=C(C)Cn1c(O)c(OS(=O)O)sc1=NN=c1scc(O)n1C [Thiazolidine-dione, 10] | < 4.00 | < 4.00 | < 4.00 | 4.00 | < 4.00 |
| O=c1c(-c2ccc(O)cc2)coc2cc(O)cc(O)c12 [Prunetol] | 4.41 | 4.82 | < 4.30 |  | < 4.00 |
| C=C(C)Cn1c(O)c(CO)sc1=NN=c1scc(O)n1C [Thiazolidine-dione, 8] | < 4.00 | < 4.00 |  | < 4.30 |  |
| C=CCn1c(O)c(C)sc1=NN=c1scc(O)n1C [Thiazolidine-dione, 5] | < 4.00 | < 4.00 | < 4.00 | < 4.30 |  |
| C=C(C)CN1C(=O)C(=C)SC1=NN=c1scc(O)n1C [Thiazolidine-dione, 2] | 4.00 | < 4.00 | 5.52 | 6.00 | < 3.30 |
| C=C(C)Cn1c(O)c(CN(C)C)sc1=NN=c1scc(O)n1C [Thiazolidine-dione, 3] | < 4.00 | 3.46 | 5.15 | 5.70 | < 3.30 |
| C=CCn1c(O)c(CC(=O)O)sc1=NN=c1scc(O)n1C [Thiazolidine-dione, 9] | < 4.00 | < 4.00 | < 4.00 | < 4.00 |  |
| C=CCN1C(=O)C(=C)SC1=NN=c1scc(O)n1C [Thiazolidine-dione, 1] | < 4.00 | < 3.30 | 5.40 | 5.22 | < 3.30 |
| C=C(C)Cn1c(O)csc1=NN=c1scc(O)n1C [Thiazolidine-dione, 4] | < 4.00 | < 4.00 | < 4.00 | < 4.30 |  |
| C=C(C)Cn1c(O)c(C)sc1=NN=c1scc(O)n1C [Thiazolidine-dione, 6] | < 4.00 | < 4.00 | < 4.00 | < 4.30 |  |
